Results reported in patent US9102675B2, “3-Cyanoaryl-1H-pyrrolo[2,3-B] pyridine derivatives” (MERCK PATENT GMBH, priority 2011, dated 2015).

Key:
TBK1 + IKKε = TBK1 + IKKε cell assay: dose response inhibition of phospho-IRF3 @ Ser 386 in MDA-MB-468 cells after poly(I:C) stimulation; format: cell-based; conditions: Homo sapiens, MDA-MB-468, MDA-MB-468 cells, reference inhibitor, read-out: IC50 of reference inhibitor in phospho-IRF3 cell assay
From the text: Dose response inhibition of phospho-IRF3 @ Ser 386 cell/MDAMB468/INH/PHOS/IMAG/pIRF3
Although TBK1 and IKKε are mainly known as key substances in the innate immune response, recent findings have indicated a role for TBK1 and IKKε in Ras-induced oncogenic transformation. TBK1 was identified as RaIB effector in the Ras-like (RaI)-guanine nucleotide exchange factor (GEF) pathway that is required for Ras-induced transformation. TBK1 directly activates IRF3 which, on phosphorylation, homodimerises and translocates to the nucleus, where it activates processes associated with inflammation, immune regulation, cell survival and proliferation.
This assay has been developed in order to assess the efficacy/potency of TBK1/IKKε inhibitor compounds based on the immunocytochemical detection of nucleus-localised phospho-IRF3, a target directly downstream of TBK1. Treatment with polyinosine-polycytidylic acid (poly(I:C), a synthetic analogue of double-stranded RNA (dsRNA), a molecular pattern associated with viral infection and recognised by Toll-like receptor 3 (TLR3) is used to induce TBK1/IKKε activity and IRF3 phosphorylation at Ser386.
Day 1: MDA-MB-468 cells are detached using HyQ-Tase, counted and sown into a 384-well plate with TC surface and clear bottom in a density of 10,000 cells per well in a total volume of 35 μl of complete medium. Alternatively, the cells are sown directly from frozen glass vials.
Day 2: The cells are pre-treated with inhibitor compounds for 1 h prior to poly(I:C) stimulation. After incubation for 2 h with poly(I:C), the cells are fixed in (para)formaldehyde (PFA) and permeabilised using methanol (MeOH). The cells are then blocked and incubated with an anti-pIRF3 antibody at 4° C. overnight.
Day 3: The primary antibody is washed off, an AlexaFluor488-conjugated secondary antibody is added, the cells are contrast-stained with propidium iodide, followed by image acquisition on an IMX ultra-high content reader.
Plating medium=culture medium: • RPMI 1640, Invitrogen #31870 • 10% of FCS, Invitrogen #10270-106 • 2 mM Glutamax, Invitrogen #35050-038 • 1 mM sodium pyruvate, Invitrogen #11360 • 1% of Pen/Strep • 37° C., 5% of CO2
Plates: 384-well bottom cell culture plates with black/clear bottom, Falcon #35 3962 or Greiner #781090
Subcultivation: HyQ-Tase, Thermo Scientific (HyClone) # SV30030.01
Poly(I:C) (LMW), Invitrogen # tlrl-picw (prepare 20 mg/ml stock solution in sterile PBS, denature 30 min 55° C. in a water bath, slowly cool to RT, store at −20° C. in aliquots)
a 10-point dose-response curve with MSC2119074A-4=BX-795 is included in each experiment
Formaldehyde (methanol-free, 16%, ultrapure EM grade), Polysciences #18814 (storage RT), final conc.: 4%
Goat serum, PAA # B15-035 (storage 4° C., long term −20° C.), final conc.: 10%
BSA (IgG- and protease-free, 30%), US-Biological # A1317 (storage 4° C., long term −20° C.), final conc.: 2%
Tween 20 detergent, Calbiochem #655204 (storage RT), (prepare 10% stock solution in water; final conc.: 0.1%)
Anti-pIRF-3 rabbit mAb, Epitomics #2526-B (storage −20° C.), final conc.: 1:2000 in PBS/2% of BSA
Alexa Fluor goat-anti-rabbit-488, Invitrogen # A11034 or # A11008 (storage 4° C., dark), final conc.: 1:2000 in PBS/2% of BSA/0.1% of Tween
Propidium iodide (PI), Fluka #81845, 1 mg/ml in H2O (storage 4° C., dark), final conc.: 0.2 μg/ml
(1) Sow 10,000 cells/well/35μof complete RPMI +10% FCS into 384-well bottom cell culture plates with black / clear bottom,
(2) Incubate for 2 h at room temperature on the bench, followed by further incubation for 22 h at 37° C., 5% of CO2 and 90% RH. […]

[1] = target: T1, TANK binding kinase (TBK1) (Homo sapiens, UniProt Q9UHD2); assay: TBK1 enzyme assay (384-well flashplate kinase assay); format: biochemical; conditions: 10 μM ATP, 0.6 nM TBK1
T1 sequence (Q9UHD2 1-729): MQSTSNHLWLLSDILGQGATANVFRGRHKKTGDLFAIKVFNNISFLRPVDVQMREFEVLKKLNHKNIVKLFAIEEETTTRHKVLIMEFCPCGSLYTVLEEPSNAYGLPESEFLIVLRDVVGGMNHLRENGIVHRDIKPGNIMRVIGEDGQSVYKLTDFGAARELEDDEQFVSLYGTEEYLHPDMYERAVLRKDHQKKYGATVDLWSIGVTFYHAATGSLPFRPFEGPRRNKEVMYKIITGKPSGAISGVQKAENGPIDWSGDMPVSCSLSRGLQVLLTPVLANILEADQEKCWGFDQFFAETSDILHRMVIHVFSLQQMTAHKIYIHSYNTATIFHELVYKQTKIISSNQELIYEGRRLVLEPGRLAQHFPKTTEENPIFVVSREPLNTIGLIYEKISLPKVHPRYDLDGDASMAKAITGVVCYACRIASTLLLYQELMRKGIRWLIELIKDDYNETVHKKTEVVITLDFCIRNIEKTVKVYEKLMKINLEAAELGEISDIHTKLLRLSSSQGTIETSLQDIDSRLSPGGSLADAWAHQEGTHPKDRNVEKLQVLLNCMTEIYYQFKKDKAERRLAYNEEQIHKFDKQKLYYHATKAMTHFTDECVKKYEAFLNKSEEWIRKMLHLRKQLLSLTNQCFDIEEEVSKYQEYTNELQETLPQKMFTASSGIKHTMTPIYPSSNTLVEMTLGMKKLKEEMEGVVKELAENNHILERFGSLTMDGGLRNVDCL
Experimental: Test for the Inhibition of TBK1
(§1) The kinase assay is performed as 384-well flashplate assay (for example for Topcount measurement).
0.6 nM TANK binding kinase (TBK1), 800 nM biotinylated MELK-derived peptide (biotin-Ah-Ah-[…]) and 10 μM ATP (spiked with 0.25 μCi of ^33P-ATP/well) are incubated at 30° C. for 120 min in a total volume of 50 μl (10 mM MOPS, 10 mM Mg acetate, 0.1 mM EGTA, 1 mM DTT, 0.02% of Brij35, 0.1% of BSA, pH 7.5) with or without test compound. The reaction is stopped with 25 μl of 200 mM EDTA. After 30 min at room temperature, the liquid is removed, and each well is washed three times with 100 μl of 0.9% sodium chloride solution. Non-specific reaction is measured in the presence of 100 nM staurosporine. The radioactivity is measured in a Topcount (PerkinElmer). The results (for example IC50 values) are calculated using program tools provided by the IT Department (for example Assay-Explorer, Symyx). Cell Test

IKKε = target: T2, IKKε (Homo sapiens, UniProt Q14164); assay: IKKε kinase assay (384-well flashplate assay); format: biochemical; conditions: 10 μM ATP, 1 nM IKKε; read-out: IKKε enzyme assay IC50
T2 sequence (Q14164 1-716): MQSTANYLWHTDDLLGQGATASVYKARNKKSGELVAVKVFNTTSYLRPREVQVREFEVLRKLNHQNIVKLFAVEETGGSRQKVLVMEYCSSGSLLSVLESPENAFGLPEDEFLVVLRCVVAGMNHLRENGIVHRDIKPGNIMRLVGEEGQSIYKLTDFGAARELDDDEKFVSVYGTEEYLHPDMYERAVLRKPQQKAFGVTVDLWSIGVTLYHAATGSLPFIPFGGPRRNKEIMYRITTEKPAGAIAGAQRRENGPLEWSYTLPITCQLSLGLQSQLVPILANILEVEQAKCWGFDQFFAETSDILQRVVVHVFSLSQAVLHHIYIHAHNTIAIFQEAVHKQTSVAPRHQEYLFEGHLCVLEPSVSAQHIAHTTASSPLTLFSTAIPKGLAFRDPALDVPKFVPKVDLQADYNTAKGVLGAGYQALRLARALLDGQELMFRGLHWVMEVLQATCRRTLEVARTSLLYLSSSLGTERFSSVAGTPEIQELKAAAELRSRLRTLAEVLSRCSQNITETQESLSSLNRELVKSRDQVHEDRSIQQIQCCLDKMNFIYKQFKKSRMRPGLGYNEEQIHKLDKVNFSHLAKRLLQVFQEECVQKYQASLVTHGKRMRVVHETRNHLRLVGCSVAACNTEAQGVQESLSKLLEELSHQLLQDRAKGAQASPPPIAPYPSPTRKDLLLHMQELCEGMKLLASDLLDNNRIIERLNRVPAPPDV
Experimental: Test for the Inhibition of IKKε
IKKε—Kinase Assay (IKKepsilon)
as §1
1 nM IKKε, 800 nM biotinylated IκKα(19-42) peptide (Biotin-C6-C6-[…]) and 10 μM ATP (spiked with 0.3 μCi of ^33P-ATP/well) are incubated at 30° C. for 2 hours in a total volume of 50 μl (10 mM MOPS, 10 mM Mg acetate, 0.1 mM EGTA, 1 mM dithiothreitol, 0.02% of Brij35, 0.1% of BSA, 0.1% of BioStab, pH 7.5) with or without test compound. The reaction is stopped using 25 μl of 200 mM EDTA. After 30 min at room temperature, the liquid is removed, and each well is washed three times with 100 μl of 0.9% sodium chloride solution. Non-specific reaction is determined in the presence of 3 μM MSC2119074 (BX-795). The radioactivity is measured using a Topcount (Perkin Elmer). The results (for example IC50 values) are calculated using program tools provided by the IT Department (for example AssayExplorer, Symyx).

SMILES	IC50 (TBK1 + IKKε) [µM]	IC50 [1] [µM]	IC50 (IKKε) [µM]
O=C(NCCCNc1nc(Nc2cccc(NC(=O)N3CCCC3)c2)ncc1I)c1cccs1 [BX-795, reference compound]	0.2 to 0.8	–	–
COc1ccnc2[nH]cc(-c3ccc(OC4CCOCC4)c(C#N)c3)c12 [Compound A2, 5-(4-methoxy-1H-pyrrolo[2,3-b]pyridin-3-yl)-2-tetrahydropyran-4-yloxybenzonitrile]	–	0.3 to 3	0.3 to 3
COc1ccc2c(-c3ccc(OC4CCOCC4)c(C#N)c3)c[nH]c2n1 [Compound A3, 5-(6-methoxy-1H-pyrrolo[2,3-b]pyridin-3-yl)-2-tetrahydropyran-4-yloxybenzonitrile]	–	3 to 50	3 to 50
N#Cc1cc(-c2c[nH]c3ncc(Br)cc23)ccc1OC1CCOCC1 [Compound A5, 5-(5-bromo-1H-pyrrolo[2,3-b]pyridin-3-yl)-2-tetrahydropyran-4-yl-oxy-benzonitrile]	–	3 to 50	3 to 50
N#Cc1ccc(-c2cnc3[nH]cc(-c4ccc(OC5CCOCC5)c(C#N)c4)c3c2)cc1 [Compound A6, 5-[5-(4-cyanophenyl)-1H-pyrrolo[2,3-b]pyridin-3-yl]-2-tetrahydropyran-4-yloxybenzonitrile]	–	< 0.3	0.3 to 3
Cc1[nH]c2ncc(-c3cnn(C)c3)cc2c1-c1ccc(OC2CCOCC2)c(C#N)c1 [Compound A11, 5-[2-methyl-5-(1-methylpyrazol-4-yl)-1H-pyrrolo[2,3-b]pyridin-3-yl]-2-tetrahydropyran-4-yloxybenzonitrile]	–	< 0.3	0.3 to 3
N#Cc1cc(-c2c[nH]c3ncc(Br)cc23)ccc1OCC1CC1 [Compound A14, 5-(5-bromo-1H-pyrrolo[2,3-b]pyridin-3-yl)-2-(cyclopropylmethoxy)benzonitrile]	–	3 to 50	3 to 50
N#Cc1cc(-c2c[nH]c3ncc(-c4cnn(C5CCN(S(=O)(=O)c6ccccc6)CC5)c4)cc23)cnc1OC1CCOCC1 [Compound A19, 5-[5-[1-[1-(benzenesulfonyl)-4-piperidyl]pyrazol-4-yl]-1H-pyrrolo[2,3-b]pyridin-3-yl]-2-tetrahydropyran-4-yloxypyridine-3-carbonitrile]	–	0.3 to 3	0.3 to 3
